Consider two compounds from patent US20080159995A1, “TREATMENT OF FIBROSIS” (priority 2006, published 2008).

The conditions of data set [1]: cited from earlier work.
For data set [2], the system named is A549 alveolar epithelial cells. The experiment in a line: alveolar epithelial cell wound repair model (in vitro epithelial wound-healing assay). Conditions: mechanically wounded monolayer, FIG. 4. In kind it is cell-based, human.
Procedure: In the present studies an alveolar epithelial cells wound repair model was employed. […] Closure of this wound was monitored over 24 hours following treatment.
The wound healing assays were performed utilising A549 alveolar epithelial cells. The epithelial repair activity was determined using an in-vitro epithelial wound-healing assay as described in Example 1 (Geiser T et al. Am J Respir Crit. Care Med. 2001; 163: 1384-1388) using human A549 alveolar epithelial-like cells (American Type Culture Collection, Rockville, Md.). Briefly, A549 epithelial cells were cultured to confluency in 12-well plates for 48 hours in minimal essential medium (MEM) containing 10% fetal bovine serum and then mechanically wounded with a pipette tip. Concentrated BALF from each patient was added to the wounded epithelial monolayers (experiments performed in triplicates) and the area of the wound was measured over a time period of 24 hours.
Data set [3] has as its system Transforming Growth Factor (TGF)-β-Connective Tissue Growth Factor (CTGF) interactions via a Rho signalling pathway. Conditions: recent studies, refs 1 and 2; cited from earlier work.

`CCC(C)C(=O)OC1CC(C)C=C2C=CC(C)C(CCC3CC(O)CC(=O)O3)C21` (stereo not drawn) [Lovastatin, [8-[2-(4-hydroxy-6-oxo-oxan-2-yl)ethyl]-3,7-dimethyl-1,2,3,7,8,8a-hexahydronaphthalen-1-yl]2-methylbutanoate]: the solubility in acetonitrile result in data set [1] (acetonitrile) is on record as “sparingly soluble”. Further, the solubility in ethanol entry in data set [1] (ethanol) is given as “sparingly soluble”. In addition, the solubility in methanol entry in data set [1] (methanol) was “sparingly soluble”. The solubility in water entry in data set [1] (water) is on record as “insoluble”.

Take `CCC(C)(C)C(=O)O[C@H]1C[C@@H](C)C=C2C=C[C@@H](C)[C@H](CC[C@@H]3C[C@@H](O)CC(=O)O3)[C@H]21` [simvastatin, [(1S,3R,7R,8S,8aR)-8-[2-[(2R,4R)-4-hydroxy-6-oxo-oxan-2-yl]ethyl]-3,7-dimethyl-1,2,3,7,8,8a-hexahydronaphthalen-1 yl]2,2-dimethylbutanoate]: in data set [2], the wound closure entry was “improves wound closure”. Further, the “anti-fibrotic potential (TGF-β-CTGF interactions, pro-fibrotic differentiation)” value in data set [3] is on record as “over-riding Transforming Growth Factor (TGF)-β-Connective Tissue Growth Factor (CTGF) interactions”.
